Columns and labels:
[1] = Particle size (mean diameter D[4,3]) by laser light scattering, Malvern Mastersizer MS1; format: physicochemical; settings: product as obtained, not micronised
Procedure: According to present invention, when a particles sample is stated to have mean diameter, referred to as D[4,3], higher than X μm, this means that the mean volume of the particles constituting the sample is higher than the volume of a spherical particle with diameter X.
The particle sizes, i.e. mean diameter values D[4,3], were determined with the known technique of laser light scattering using a Malvern Mastersizer MS1 instrumentation under the following operative conditions: • 300RF mm lens with laser beam length of 2.4 mm; • 100 mg sample dispersed in 100 ml of isopar and 0.5 ml of a 2% solution of lecithin in isopar, with 3 min presonication and 2500 rpm stirring rate.

[2] = Stability of the solid form at room temperature; format: physicochemical

mean D[4,3] diameter of particles ([1]; listed as Adapalene Amorphous Form) | stability of the polymorphic form [2] | mean D[4,3] diameter of particles ([1]; listed as Adapalene Crystalline Form α) | mean D[4,3] diameter of particles ([1]; listed as adapalene crystalline Form a) | SMILES
approx. 15 μm | – | – | – | COc1ccc(-c2ccc3cc(C(=O)O)ccc3c2)cc1C12CC3CC(CC(C3)C1)C2 [adapalene amorphous Form, 6-[3-(1-adamantyl)-4-methoxyphenyl]-2-naphthoic acid]
– | stable at room temperature | approx. 15 μm | about 15 μm | COc1ccc(-c2ccc3cc(C(=O)O)ccc3c2)cc1C12CC3CC(CC(C3)C1)C2 [adapalene crystalline Form α, 6-[3-(1-adamantyl)-4-methoxyphenyl]-2-naphthoic acid]

From patent US20060116427A1, “Adapalene polymorphic forms” (priority 2004, published 2006)
